Test results reported in patent publication US20230192617A1, “AZABICYCLIC(THIO)AMIDES AS FUNGICIDAL COMPOUNDS” (Bayer CropScience Aktiengesellschaft, priority 2020, published 2023).
One block for each compound: values may come before it.

Legend:
Alternaria alternata = Alternaria alternata in vitro cell test; format: cell-based; settings: 120 h, 20 ppm of active ingredient, liquid culture, 5 days incubation, spectrometric measurement of mycelium growth, read-out: efficacy (inhibition of fungal growth)
Outline: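 Spectrometric readout of mycelial growth after 5-day incubation gauged compound effects on spore germination and growth of A. alternata in liquid medium. Compounds were delivered in DMSO at ≤1% final. Absorbance was compared with untreated controls to give inhibition.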

Pyrenophora teres = test: B-10. Pyrenophora teres in vitro cell test; format: cell-based; settings: 144 h, 20 ppm of active ingredient, 6 days incubation, liquid culture, absorbance, read-out: efficacy (inhibition of fungal growth)
Description: B-10. Pyrenophora teres In Vitro Cell Test [table] Fungicides were solubilized in DMSO and the solution used to prepare the required range of concentrations. The final concentration of DMSO used in the assay was ≤1%. A spore suspension of P. teres was prepared and diluted to the desired spore density. Fungicides were evaluated for their ability to inhibit spore germination and mycelium growth in liquid culture assay. The compounds were added in the desired concentration to the culture medium with spores. After 6 days incubation, fungi-toxicity of compounds was determined by spectrometric measurement of mycelium growth. Inhibition of fungal growth was determined by comparing the absorbance values in wells containing the fungicides with the absorbance in control wells without fungicides.

Botrytis cinerea [1] = test: In vivo preventive test on Botrytis cinerea (grey mould); settings: 500 ppm of active ingredient, preventive spray on gherkin or cabbage, evaluated 4 to 5 days after inoculation, read-out: efficacy
Outline: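 Preventive spray on cabbage or gherkin seedlings, with compound formulated in DMSO/acetone/Tween 80 and water-diluted, preceded spore inoculation by 24 hours. Cabbage was held 4 to 5 days at 20° C., 100% relative humidity; gherkin 4 to 5 days at 17° C., 90% relative humidity.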

Botrytis cinerea [2] = test: B-11. Botrytis cinerea in vitro cell test; format: cell-based; settings: 144 h, 20 ppm of active ingredient, 6 days incubation, liquid culture, absorbance, read-out: efficacy (inhibition of fungal growth)
Outline: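 B. cinerea spores were grown in liquid culture with compound (DMSO ≤1% final). Mycelium growth was measured spectrometrically after 6 days, with inhibition taken as absorbance relative to untreated control wells.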

[3] = system: Colletotrichum lindemuthianum; test: B-8. Colletotrichum lindemuthianum in vitro cell test; format: cell-based; settings: 144 h, 20 ppm of active ingredient, 6 days incubation, liquid culture, absorbance, read-out: efficacy (inhibition of fungal growth)
Outline: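 Liquid-culture germination/growth test: compounds in ≤1% final DMSO were added to spore-containing medium. Fungal growth was quantified spectrophotometrically after 6 days of incubation and expressed as inhibition versus untreated controls.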

Alternaria brassicae = test: In vivo preventive test on Alternaria brassicae (leaf spot on radish or cabbage); settings: 500 ppm of active ingredient, preventive spray on radish or cabbage, evaluated 3 to 4 days after inoculation, read-out: efficacy
Description: B-1. In Vivo Preventive Test on Alternaria brassicae (Leaf Spot on Radish or Cabbage) [table] The active ingredients were made soluble and homogenized in a mixture of Dimethyl sulfoxide/Acetone/Tween® 80 and then diluted in water to the desired concentration. The young plants of radish or cabbage were treated by spraying the active ingredient prepared as described above. Control plants were treated only with an aqueous solution of Acetone/Dimethyl sulfoxide/Tween® 80. After 24 hours, the plants were contaminated by spraying the leaves with an aqueous suspension of Alternaria brassicae spores. The contaminated radish or cabbage plants were incubated for 3 to 4 days at 20° C. and at 100% relative humidity.

[4] = Measurement of Log P values by HPLC on reversed phase columns (EEC directive 79/831 Annex V.A8); format: physicochemical; settings: for chromatographic logP: reversed phase HPLC column
Outline: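 Log P derived from retention on reversed-phase columns (EEC directive 79/831 Annex V.A8), LC-UV, acetonitrile gradient 10% to 95% against water containing 0.1% formic acid, 0.001 M ammonium acetate, or 0.1% phosphoric acid; several values per method separated by "+".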

Sphaerotheca fuliginea = test: In vivo preventive test on Sphaerotheca fuliginea (powdery mildew on cucurbits); settings: Podosphaera fuliginea, 192 h; 500 ppm of active ingredient; preventive spray on gherkin; evaluated 8 days after inoculation; read-out: efficacy
Description: B-4. in vivo preventive test on Sphaerotheca fuliginea (powdery mildew on cucurbits) [table] The active ingredients were made soluble and homogenized in a mixture of Dimethyl sulfoxide/Acetone/Tween® 80 and then diluted in water to the desired concentration. The young plants of gherkin were treated by spraying the active ingredient prepared as described above. Control plants were treated only with an aqueous solution of Acetone/Dimethyl sulfoxide/Tween® 80. After 24 hours, the plants were contaminated by spraying the leaves with an aqueous suspension of Sphaerotheca fuliginea spores. The contaminated gherkin plants were incubated for 8 days at 20° C. and at 70-80% relative humidity.

[5] = method [a]: LC-UV, acidic range, 0.1% formic acid in water and acetonitrile as eluent

SMILES: O=C(NCCc1ccc2c(c1)OCO2)c1c(Oc2cccc(C(F)(F)F)c2)nnc2ccccc12 [I-092]
inhibition at 20 ppm (Alternaria alternata): 90 to 100%
inhibition at 20 ppm (Pyrenophora teres): 90 to 100%
pest or weed control at 500 ppm (Botrytis cinerea [1]): 90 to 100%
inhibition at 20 ppm (Botrytis cinerea [2]): 90 to 100%
inhibition at 20 ppm [3]: 90 to 100%
pest or weed control at 500 ppm (Alternaria brassicae): 90 to 100%
chromatographic logP [4, 5]: 3.45

SMILES: COCc1ccc(C(F)(F)CNC(=O)c2c(Oc3cccc(C(F)(F)F)c3)nnc3ccccc23)c(Cl)c1 [I-074]
inhibition at 20 ppm (Alternaria alternata): 90 to 100%
inhibition at 20 ppm (Pyrenophora teres): 90 to 100%
pest or weed control at 500 ppm (Botrytis cinerea [1]): 90 to 100%
inhibition at 20 ppm (Botrytis cinerea [2]): 90 to 100%
inhibition at 20 ppm [3]: 90 to 100%
pest or weed control at 500 ppm (Alternaria brassicae): 90 to 100%
chromatographic logP [4, 5]: 4.12

SMILES: COc1ccc2nnc(Oc3cccc(C(F)(F)F)c3)c(C(=O)NCCc3ccc(C)cc3C)c2c1 [I-010]
inhibition at 20 ppm (Alternaria alternata): 90 to 100%
pest or weed control at 500 ppm (Botrytis cinerea [1]): 90 to 100%
pest or weed control at 500 ppm (Sphaerotheca fuliginea): 90 to 100%
pest or weed control at 500 ppm (Alternaria brassicae): 80 to 89%
chromatographic logP [4, 5]: 4.29

SMILES: Cc1scc(CCNC(=O)c2c(Oc3cccc(C(F)(F)F)c3)nnc3ccccc23)c1C [I-093]
inhibition at 20 ppm (Alternaria alternata): 70 to 79%
inhibition at 20 ppm (Pyrenophora teres): 90 to 100%
pest or weed control at 500 ppm (Botrytis cinerea [1]): 90 to 100%
inhibition at 20 ppm (Botrytis cinerea [2]): 90 to 100%
inhibition at 20 ppm [3]: 90 to 100%
pest or weed control at 500 ppm (Alternaria brassicae): 90 to 100%
chromatographic logP [4, 5]: 4.11

SMILES: C[C@H](NC(=O)c1c(Oc2cncc(C(F)(F)F)c2)nnc2ccccc12)c1cccc(C(F)(F)F)c1 (racemic) [I-028]
pest or weed control at 500 ppm (Botrytis cinerea [1]): 90 to 100%
inhibition at 20 ppm [3]: 80 to 89%
pest or weed control at 500 ppm (Sphaerotheca fuliginea): 90 to 100%
chromatographic logP [4, 5]: 3.57

SMILES: Cc1ccc(C(F)(F)CNC(=O)c2c(Oc3cccc(C(F)(F)F)c3)cnc3ccccc23)c(C)c1 [I-039, N-[2-(2,4-dimethylphenyl)-2,2-difluoro-ethyl]-3-[3-(trifluoro-methyl)phenoxy]quinoline-4-carboxamide]
inhibition at 20 ppm (Alternaria alternata): 90 to 100%
pest or weed control at 500 ppm (Botrytis cinerea [1]): 90 to 100%
inhibition at 20 ppm [3]: 90 to 100%
pest or weed control at 500 ppm (Sphaerotheca fuliginea): 90 to 100%
chromatographic logP [4, 5]: 4.46

SMILES: CC(=O)c1ccc(C(F)(F)CNC(=O)c2c(Oc3cccc(C(F)(F)F)c3)nnc3ccccc23)c(Cl)c1 [I-069]
inhibition at 20 ppm (Alternaria alternata): 80 to 89%
inhibition at 20 ppm (Pyrenophora teres): 90 to 100%
pest or weed control at 500 ppm (Botrytis cinerea [1]): 90 to 100%
inhibition at 20 ppm (Botrytis cinerea [2]): 90 to 100%
inhibition at 20 ppm [3]: 70 to 79%
pest or weed control at 500 ppm (Alternaria brassicae): 90 to 100%
chromatographic logP [4, 5]: 3.84

SMILES: Cc1cccc2c1OCC[C@@H]2NC(=O)c1c(Oc2cccc(C(F)(F)F)c2)nnc2ccccc12 (racemic) [I-082]
inhibition at 20 ppm (Alternaria alternata): 90 to 100%
inhibition at 20 ppm (Pyrenophora teres): 90 to 100%
pest or weed control at 500 ppm (Botrytis cinerea [1]): 90 to 100%
inhibition at 20 ppm (Botrytis cinerea [2]): 90 to 100%
inhibition at 20 ppm [3]: 90 to 100%
pest or weed control at 500 ppm (Alternaria brassicae): 90 to 100%
chromatographic logP [4, 5]: 4.07

SMILES: Cc1ccc(C(F)(F)CNC(=O)c2c(Oc3cccc(C(F)(F)F)c3)nnc3cc(C)ccc23)c(C)c1 [I-044]
inhibition at 20 ppm (Alternaria alternata): 90 to 100%
inhibition at 20 ppm [3]: 90 to 100%
pest or weed control at 500 ppm (Sphaerotheca fuliginea): 80 to 89%
pest or weed control at 500 ppm (Alternaria brassicae): 90 to 100%
chromatographic logP [4, 5]: 4.45

SMILES: Cn1cc(-c2ccc(C(F)(F)CNC(=O)c3c(Oc4cccc(C(F)(F)F)c4)nnc4ccccc34)c(Cl)c2)cn1 [I-065]
inhibition at 20 ppm (Alternaria alternata): 70 to 79%
inhibition at 20 ppm (Pyrenophora teres): 90 to 100%
pest or weed control at 500 ppm (Botrytis cinerea [1]): 90 to 100%
inhibition at 20 ppm (Botrytis cinerea [2]): 90 to 100%
pest or weed control at 500 ppm (Alternaria brassicae): 90 to 100%
chromatographic logP [4, 5]: 3.71

SMILES: Cc1ccc2c(c1)[C@@H](NC(=O)c1c(Oc3cccc(C(F)(F)F)c3)nnc3ccccc13)COC2 (racemic) [I-083]
inhibition at 20 ppm (Alternaria alternata): 80 to 89%
inhibition at 20 ppm (Pyrenophora teres): 90 to 100%
pest or weed control at 500 ppm (Botrytis cinerea [1]): 90 to 100%
inhibition at 20 ppm (Botrytis cinerea [2]): 90 to 100%
inhibition at 20 ppm [3]: 90 to 100%
pest or weed control at 500 ppm (Alternaria brassicae): 90 to 100%
chromatographic logP [4, 5]: 3.73

SMILES: Cc1ccc(C(F)(F)CNC(=O)c2c(Oc3cccc(Cl)c3F)cnc3nccnc23)c(C)c1 [I-100]
inhibition at 20 ppm (Alternaria alternata): 90 to 100%
inhibition at 20 ppm (Pyrenophora teres): 90 to 100%
pest or weed control at 500 ppm (Botrytis cinerea [1]): 90 to 100%
inhibition at 20 ppm (Botrytis cinerea [2]): 90 to 100%
inhibition at 20 ppm [3]: 90 to 100%
pest or weed control at 500 ppm (Alternaria brassicae): 90 to 100%
chromatographic logP [4, 5]: 3.38

Further lines, with some results ahead:

chromatographic logP [4, 5]: 3
SMILES: O=C(NCCn1cc(Cl)cn1)c1c(Oc2cccc(C(F)(F)F)c2)nnc2ccccc12 [I-244]
inhibition at 20 ppm (Alternaria alternata): 90 to 100%
inhibition at 20 ppm (Pyrenophora teres): 90 to 100%
pest or weed control at 500 ppm (Botrytis cinerea [1]): 80 to 89%
inhibition at 20 ppm (Botrytis cinerea [2]): 90 to 100%
inhibition at 20 ppm [3]: 90 to 100%
pest or weed control at 500 ppm (Alternaria brassicae): 90 to 100%

chromatographic logP [4, 5]: 4.12
SMILES: O=C(NCC(F)(F)c1ccccc1Cl)c1c(Oc2cccc(C(F)(F)F)c2)nnc2ccccc12 [I-214]
inhibition at 20 ppm (Alternaria alternata): 90 to 100%
inhibition at 20 ppm (Pyrenophora teres): 90 to 100%
pest or weed control at 500 ppm (Botrytis cinerea [1]): 90 to 100%
inhibition at 20 ppm (Botrytis cinerea [2]): 90 to 100%
inhibition at 20 ppm [3]: 90 to 100%
pest or weed control at 500 ppm (Alternaria brassicae): 90 to 100%

chromatographic logP [4, 5]: 5.17
SMILES: Cc1ccc(C(F)(F)CNC(=S)c2c(Oc3cccc(C(F)(F)F)c3)cnc3ccccc23)c(C)c1 [I-159]
inhibition at 20 ppm [3]: 70 to 79%
pest or weed control at 500 ppm (Sphaerotheca fuliginea): 90 to 100%

chromatographic logP [4, 5]: 3.53
SMILES: O=C(NCCc1cccs1)c1c(Oc2cccc(C(F)(F)F)c2)nnc2ccccc12 [I-237]
inhibition at 20 ppm (Alternaria alternata): 90 to 100%
inhibition at 20 ppm (Pyrenophora teres): 90 to 100%
pest or weed control at 500 ppm (Botrytis cinerea [1]): 70 to 79%
inhibition at 20 ppm (Botrytis cinerea [2]): 90 to 100%
inhibition at 20 ppm [3]: 80 to 89%
pest or weed control at 500 ppm (Alternaria brassicae): 90 to 100%

LogP [4, 5]: 4.02
chromatographic logP [4, 5]: 3.78
SMILES: COc1ccc2c(c1)[C@@H](NC(=O)c1c(Oc3cccc(C(F)(F)F)c3)nnc3ccccc13)[C@@H](OC)CC2 (mixture of isomers) [I-180]
inhibition at 20 ppm (Pyrenophora teres): 90 to 100%
pest or weed control at 500 ppm (Botrytis cinerea [1]): 80 to 89%
inhibition at 20 ppm (Botrytis cinerea [2]): 90 to 100%
inhibition at 20 ppm [3]: 90 to 100%
pest or weed control at 500 ppm (Alternaria brassicae): 90 to 100%

chromatographic logP [4, 5]: 4.03
chromatographic logP ([4]; method [b]: LC-UV, neutral range, 0.001 molar ammonium acetate solution in water and acetonitrile as eluent): 3.99
SMILES: O=C(N[C@H]1CCCc2cc(Br)ccc21)c1c(Oc2cccc(C(F)(F)F)c2)cnc2c1OCCO2 (racemic) [I-111]
pest or weed control at 500 ppm (Botrytis cinerea [1]): 90 to 100%
inhibition at 20 ppm [3]: 90 to 100%
pest or weed control at 500 ppm (Sphaerotheca fuliginea): 90 to 100%
pest or weed control at 500 ppm (Alternaria brassicae): 90 to 100%
